Test results: PubChem BioAssay (NCI)
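Compound exposure: 48 hours, 5 concentrations, 96-well plates. TGI: concentration producing complete growth inhibition.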

Tests used:
Assay in all cases: DTP human tumour cell line panel, 48 h
[1] = tested on: HCT-116 colon
[2] = tested on: KM12 colon
[3] = tested on: HS 578T breast
[4] = tested on: SN12C renal
[5] = tested on: OVCAR-8 ovarian
[6] = tested on: U251 CNS
[7] = tested on: M14 melanoma
[8] = tested on: SW-620 colon
[9] = tested on: A498 renal
[10] = tested on: HCT-15 colon
[11] = tested on: SNB-75 CNS
[12] = tested on: MCF7 breast
[13] = tested on: MOLT-4 leukemia
[14] = tested on: HOP-62 NSCLC
[15] = tested on: MDA-MB-435
[16] = tested on: HOP-92 NSCLC
[17] = tested on: IGROV1 ovarian
[18] = tested on: UO-31 renal
[19] = tested on: A549 NSCLC
[20] = tested on: CCRF-CEM leukemia
[21] = tested on: CAKI-1 renal
[22] = tested on: SF-295 CNS
[23] = tested on: SF-539 CNS
[24] = tested on: NCI-H23 lung
[25] = tested on: HT29 colon
[26] = tested on: EKVX NSCLC
[27] = tested on: COLO 205 colon
[28] = tested on: PC-3 prostate
[29] = tested on: OVCAR-3 ovarian
[30] = tested on: SNB-19 CNS
[31] = tested on: SK-MEL-28 melanoma
[32] = tested on: OVCAR-4 ovarian
[33] = tested on: DU-145 prostate
[34] = tested on: ACHN renal
[35] = tested on: UACC-257 melanoma
[36] = tested on: T-47D breast
[37] = tested on: SF-268 CNS
[38] = tested on: K-562 leukemia
[39] = tested on: HCC-2998 colon
[40] = tested on: MDA-N
[41] = tested on: NCI/ADR-RES ovarian
[42] = tested on: SK-MEL-5 melanoma
[43] = tested on: UACC-62 melanoma
[44] = tested on: NCI-H460 lung
[45] = tested on: NCI-H226 lung
[46] = tested on: MALME-3M melanoma
[47] = tested on: RPMI-8226 leukemia
[48] = tested on: RXF 393 renal
[49] = tested on: BT-549 breast
[50] = tested on: NCI-H522 lung
[51] = tested on: OVCAR-5 ovarian
[52] = tested on: 786-0 renal
[53] = tested on: SK-OV-3 ovarian
[54] = tested on: MDA-MB-231 breast
[55] = tested on: SK-MEL-2 melanoma
[56] = tested on: SR leukemia
[57] = tested on: TK-10 renal
[58] = tested on: HL-60(TB) leukemia
[59] = tested on: LOX IMVI melanoma

## CC(C)C1=CC(=O)C(C)(C2C(O)CC3(C)C4CC=C5C(CCC(OC6OC(CO)C(O)C(O)C6OC6OC(C)C(O)C(O)C6O)C5(C)C)C4(C)C(=O)CC23C)O1 (stereo not given)
[1]
  TGI: > 100 µM
[2]
  TGI: > 100 µM
[3]
  TGI: > 100 µM
[4]
  TGI: > 100 µM
[5]
  TGI: > 100 µM
[6]
  TGI: > 100 µM
[7]
  TGI: > 100 µM
[8]
  TGI: > 100 µM
[9]
  TGI: > 100 µM
[10]
  TGI: > 100 µM
[11]
  TGI: > 100 µM
[12]
  TGI: > 100 µM
[13]
  TGI: > 100 µM
[14]
  TGI: > 100 µM
[15]
  TGI: > 100 µM
[16]
  TGI: > 100 µM
[17]
  TGI: > 100 µM
[18]
  TGI: > 100 µM
[19]
  TGI: > 100 µM
[20]
  TGI: > 100 µM
[21]
  TGI: > 100 µM
[22]
  TGI: > 100 µM
[23]
  TGI: > 100 µM
[24]
  TGI: > 100 µM
[25]
  TGI: > 100 µM
[26]
  TGI: > 100 µM
[27]
  TGI: > 100 µM
[28]
  TGI: > 100 µM
[29]
  TGI: > 100 µM
[30]
  TGI: > 100 µM
[31]
  TGI: > 100 µM
[32]
  TGI: > 100 µM
[33]
  TGI: > 100 µM
[34]
  TGI: > 100 µM
[35]
  TGI: > 100 µM
[36]
  TGI: > 100 µM
[37]
  TGI: > 100 µM
[38]
  TGI: > 100 µM
[39]
  TGI: > 100 µM
[40]
  TGI: > 100 µM
[41]
  TGI: > 100 µM
[42]
  TGI: > 100 µM
[43]
  TGI: > 100 µM
[44]
  TGI: > 100 µM
[45]
  TGI: > 100 µM
[46]
  TGI: > 100 µM
[47]
  TGI: > 100 µM
[48]
  TGI: > 100 µM
[49]
  TGI: > 100 µM
[50]
  TGI: > 100 µM
[51]
  TGI: > 100 µM
[52]
  TGI: > 100 µM
[53]
  TGI: > 100 µM
[54]
  TGI: > 100 µM

## COc1ccc(N=Nc2c(C)c(C#N)c(=S)n(C3OC(CO)C(O)C(O)C3O)c2-c2ccccc2)cc1 (stereo not given)
[1]
  TGI: 94 µM
[2]
  TGI: > 100 µM
[3]
  TGI: 55.3 µM
[4]
  TGI: > 100 µM
[55]
  TGI: 89.7 µM
[6]
  TGI: 86.1 µM
[7]
  TGI: 76.8 µM
[8]
  TGI: > 100 µM
[9]
  TGI: 44.5 µM
[10]
  TGI: > 100 µM
[11]
  TGI: 49.1 µM
[56]
  TGI: > 100 µM
[12]
  TGI: 84.7 µM
[13]
  TGI: 46.5 µM
[14]
  TGI: 98.2 µM
[15]
  TGI: 73.9 µM
[17]
  TGI: > 100 µM
[57]
  TGI: 94.8 µM
[18]
  TGI: > 100 µM
[19]
  TGI: > 100 µM
[20]
  TGI: > 100 µM
[21]
  TGI: 73.3 µM
[22]
  TGI: 98.5 µM
[58]
  TGI: > 100 µM
[23]
  TGI: > 100 µM
[24]
  TGI: 98 µM
[25]
  TGI: > 100 µM
[27]
  TGI: > 100 µM
[28]
  TGI: 66.3 µM
[29]
  TGI: 55.3 µM
[30]
  TGI: > 100 µM
[31]
  TGI: 63.6 µM
[32]
  TGI: > 100 µM
[33]
  TGI: > 100 µM
[34]
  TGI: > 100 µM
[35]
  TGI: > 100 µM
[36]
  TGI: 97.3 µM
[37]
  TGI: > 100 µM
[38]
  TGI: > 100 µM
[39]
  TGI: > 100 µM
[40]
  TGI: > 100 µM
[41]
  TGI: > 100 µM
[42]
  TGI: 27.8 µM
[43]
  TGI: 47.6 µM
[44]
  TGI: > 100 µM
[59]
  TGI: 99.6 µM
[46]
  TGI: 63.1 µM
[47]
  TGI: > 100 µM
[48]
  TGI: 65.9 µM
[49]
  TGI: 97.6 µM
[51]
  TGI: 81.6 µM
[52]
  TGI: > 100 µM
[53]
  TGI: 83.3 µM
[54]
  TGI: > 100 µM

## CCOC(=O)c1c[nH]c2c(Sc3ccccc3)nccc2c1=O
[1]
  TGI: > 100 µM
[2]
  TGI: > 100 µM
[3]
  TGI: > 100 µM
[4]
  TGI: > 100 µM
[55]
  TGI: > 100 µM
[5]
  TGI: > 100 µM
[6]
  TGI: > 100 µM
[7]
  TGI: > 100 µM
[8]
  TGI: > 100 µM
[9]
  TGI: > 100 µM
[10]
  TGI: > 100 µM
[11]
  TGI: > 100 µM
[12]
  TGI: > 100 µM
[13]
  TGI: > 100 µM
[14]
  TGI: > 100 µM
[15]
  TGI: > 100 µM
[16]
  TGI: > 100 µM
[17]
  TGI: > 100 µM
[57]
  TGI: > 100 µM
[18]
  TGI: > 100 µM
[19]
  TGI: > 100 µM
[20]
  TGI: > 100 µM
[21]
  TGI: > 100 µM
[22]
  TGI: > 100 µM
[58]
  TGI: 83.2 µM
[23]
  TGI: > 100 µM
[24]
  TGI: > 100 µM
[25]
  TGI: > 100 µM
[26]
  TGI: > 100 µM
[27]
  TGI: > 100 µM
[28]
  TGI: > 100 µM
[29]
  TGI: > 100 µM
[30]
  TGI: > 100 µM
[31]
  TGI: > 100 µM
[32]
  TGI: > 100 µM
[33]
  TGI: > 100 µM
[34]
  TGI: > 100 µM
[35]
  TGI: > 100 µM
[36]
  TGI: > 100 µM
[37]
  TGI: > 100 µM
[40]
  TGI: > 100 µM
[41]
  TGI: > 100 µM
[42]
  TGI: > 100 µM
[43]
  TGI: > 100 µM
[44]
  TGI: > 100 µM
[59]
  TGI: > 100 µM
[45]
  TGI: > 100 µM
[49]
  TGI: > 100 µM
[50]
  TGI: 74 µM
[51]
  TGI: > 100 µM
[52]
  TGI: > 100 µM
[53]
  TGI: > 100 µM
[54]
  TGI: > 100 µM

## OC(c1ccccc1)(c1ccccc1)c1nccc2ccccc12
[1]
  TGI: 97 µM
[2]
  TGI: > 100 µM
[3]
  TGI: > 100 µM
[4]
  TGI: > 100 µM
[5]
  TGI: > 100 µM
[6]
  TGI: > 100 µM
[7]
  TGI: 49.9 µM
[10]
  TGI: > 100 µM
[56]
  TGI: > 100 µM
[12]
  TGI: > 100 µM
[13]
  TGI: 59.4 µM
[14]
  TGI: 43.2 µM
[15]
  TGI: > 100 µM
[17]
  TGI: > 100 µM
[57]
  TGI: > 100 µM
[18]
  TGI: > 100 µM
[19]
  TGI: > 100 µM
[20]
  TGI: 95.5 µM
[21]
  TGI: > 100 µM
[22]
  TGI: 36.2 µM
[58]
  TGI: > 100 µM
[24]
  TGI: 89.5 µM
[25]
  TGI: > 100 µM
[26]
  TGI: 83.5 µM
[27]
  TGI: > 100 µM
[28]
  TGI: > 100 µM
[29]
  TGI: 52.5 µM
[30]
  TGI: > 100 µM
[31]
  TGI: > 100 µM
[32]
  TGI: > 100 µM
[33]
  TGI: > 100 µM
[34]
  TGI: > 100 µM
[35]
  TGI: > 100 µM
[36]
  TGI: > 100 µM
[37]
  TGI: > 100 µM
[40]
  TGI: > 100 µM
[41]
  TGI: > 100 µM
[42]
  TGI: 27 µM
[43]
  TGI: > 100 µM
[44]
  TGI: 43.7 µM
[59]
  TGI: 44.3 µM
[46]
  TGI: 68 µM
[47]
  TGI: > 100 µM
[49]
  TGI: 37.2 µM
[50]
  TGI: 40.8 µM
[51]
  TGI: > 100 µM
[52]
  TGI: > 100 µM
[53]
  TGI: 70.2 µM
[54]
  TGI: > 100 µM
